{"source": "patent US11491185B2", "about": "“Intra-mammary teat sealant formulation and method of using same to reduce or eliminate visual defects in aged cheeses” (Wisconsin Alumni Research Foundation, priority 2006, dated 2022)", "test": "Laboratory-induced black spot defect: cheese with ITS components exposed to aged cheese volatiles or hydrogen sulfide gas", "type": "physicochemical", "details": "blended in cheese, exposed to authentic cheese volatiles or H2S gas", "protocol": "FIGS. 4A and 4B are images of laboratory-induced black spot defects. In FIG. 4A, the various components of “ORBESEAL”-brand intra-mammary teat sealant (ITS) were blended with cheese and each spot was photographed immediately. […] Sites 4 and 5 contain bismuth subnitrate and the intact “ORBESEAL”-brand ITS formulation, respectively.\nTo confirm the reactivity of bismuth subnitrate as a reactant in forming bismuth Ill sulfide nanorods, additional assays were conducted to see if BSD could be purposefully recreated in the lab. In short, cheeses were manufactured with known amounts of ITS components and subjected to either the authentic volatile gasses produced by maturing cheeses or exposed directly to the hypothesized bismuth subnitrate co-reactant, hydrogen sulfide gas. […] No other ITS component formed black spots when so exposed. Furthermore, the susceptible sites formed identically black pigmentation when exposed to either authentic cheese volatiles or to hydrogen sulfide gas, thus confirming that hydrogen sulfide gas was the suspected co-reactant."}
{"smiles": "O=[N+]([O-])[O-].O=[N+]([O-])[O-].O=[N+]([O-])[O-].O=[N+]([O-])[O-].[Bi+3].[Bi+3].[Bi+3].[Bi+3].[Bi+3].[O-2].[OH-].[OH-].[OH-].[OH-].[OH-].[OH-].[OH-].[OH-].[OH-]", "note": "[bismuth subnitrate]", "values": [{"measurement": "Formation of black pigmentation (black spots) with nanorod structures", "result": "formed identical black pigmentation"}]}
